Assay results published in patent US7858635B2 (priority 2005, dated 2010).

Experiments:
M1 muscarinic receptor = biological target: T1, M1 muscarinic receptor (Homo sapiens, UniProt P11229); assay: Functional mobilization of intracellular calcium (FLIPR, Fluo-3), M1-CHO cells; format: cell-based; conditions: compound nos. 1-454; for Emax: 100% efficacy is the maximum response obtained with the Carbachol control, read-out: M1 Efficacy; for M1 Activity: M1-CHO cells, calcium mobilization
T1 construct: expressed in transfected cells; host or cells: CHO cells (M1-CHO, under zeocin and G418 selection)
T1 sequence (P11229 1-460): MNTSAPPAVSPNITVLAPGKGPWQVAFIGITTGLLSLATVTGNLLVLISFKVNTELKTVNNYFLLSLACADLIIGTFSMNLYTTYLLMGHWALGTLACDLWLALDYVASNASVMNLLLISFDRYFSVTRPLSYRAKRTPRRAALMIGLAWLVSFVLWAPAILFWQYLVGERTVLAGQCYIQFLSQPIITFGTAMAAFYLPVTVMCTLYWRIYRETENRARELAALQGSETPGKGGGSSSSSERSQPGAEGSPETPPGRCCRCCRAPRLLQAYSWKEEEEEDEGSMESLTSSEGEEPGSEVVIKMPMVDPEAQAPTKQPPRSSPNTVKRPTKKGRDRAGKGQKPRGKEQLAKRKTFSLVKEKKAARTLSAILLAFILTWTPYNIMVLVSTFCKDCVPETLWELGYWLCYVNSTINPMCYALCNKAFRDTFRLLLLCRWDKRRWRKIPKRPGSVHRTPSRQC
In short: (§1)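 Intracellular calcium was tracked by fluorescence (488/540 nm) over 60 sec after compound addition to dye-loaded CHO cells expressing the receptor. Inhibitory activity used a 15 min pre-incubation before carbachol at the subtype EC80.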

M4 muscarinic receptor = biological target: T2, M4 muscarinic receptor (Homo sapiens, UniProt P08173); assay: Functional mobilization of intracellular calcium (FLIPR, Fluo-3), M4-CHO cells; format: cell-based; conditions: compound nos. 1-454; for Emax: 100% efficacy is the maximum response obtained with the Carbachol control, read-out: M4 Efficacy; for M4 Activity: M4-CHO cells, calcium mobilization
T2 construct: expressed in transfected cells; host or cells: CHO cells (M4-CHO, under puromycin, zeocin and blasticidin selection)
T2 sequence (P08173 1-479): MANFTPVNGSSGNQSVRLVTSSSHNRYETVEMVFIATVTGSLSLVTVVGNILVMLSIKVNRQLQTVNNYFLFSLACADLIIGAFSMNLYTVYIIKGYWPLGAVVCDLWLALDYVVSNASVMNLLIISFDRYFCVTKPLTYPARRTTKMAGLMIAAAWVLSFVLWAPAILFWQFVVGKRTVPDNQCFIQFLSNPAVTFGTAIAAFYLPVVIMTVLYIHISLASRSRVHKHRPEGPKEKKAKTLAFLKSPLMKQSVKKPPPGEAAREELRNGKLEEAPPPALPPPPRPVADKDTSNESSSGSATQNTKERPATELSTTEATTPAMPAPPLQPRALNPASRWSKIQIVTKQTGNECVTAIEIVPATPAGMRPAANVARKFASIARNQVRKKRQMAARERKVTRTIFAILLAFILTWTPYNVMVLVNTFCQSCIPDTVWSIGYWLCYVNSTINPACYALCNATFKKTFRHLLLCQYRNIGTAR
In short: as §1

| SMILES | Emax (M1 muscarinic receptor) | M1 Activity (M1 muscarinic receptor) | Emax (M4 muscarinic receptor) | M4 Activity (M4 muscarinic receptor) |
| --- | --- | --- | --- | --- |
| COC(=O)N1CC2(CCN(C3CC4CCC(C3)N4C(=O)OC)CC2)c2cc(F)ccc21 (centres unmarked) [compound 235] | 65 to 85% | ++ (activity was measured to be between 0.7 μM and 3.0 μM) | 55 to 70% | + (activity was measured to be greater than or equal to 4.0 μM) |
| CC(=O)N1CC2(CCN(C3CCC(C(F)(F)F)CC3)CC2)c2cc(F)ccc21 (centres unmarked) [compound 236] | 65 to 85% | +++ (activity was measured to be less than or equal to 0.7 μM) | 55 to 70% | ++ (activity was measured to be between 0.1 μM and 4.0 μM) |
| O=C1CC2(CCN(C[C@@H]3C[C@H]4C=C[C@H]3C4)CC2)c2ccccc21 [compound 238] | < 65% | + (activity was measured to be greater than or equal to 3.0 μM) | < 55% | + (activity was measured to be greater than or equal to 4.0 μM) |
| Fc1ccc2c(c1)C1(CCN(CC3CCCCC3)CC1)CN2 [compound 239] | 65 to 85% | + (activity was measured to be greater than or equal to 3.0 μM) | 55 to 70% | + (activity was measured to be greater than or equal to 4.0 μM) |
| CC(=O)N1CC2(CCN(C3CCC[C@@H](C)C3)CC2)c2cc(F)ccc21 (some centres unmarked) [compound 240] | 65 to 85% | ++ (activity was measured to be between 0.7 μM and 3.0 μM) | > 70% | + (activity was measured to be greater than or equal to 4.0 μM) |
| Cc1ccc2c(c1)C1(CCN(CC3CCC4CCC3C4)CC1)CN2 (centres unmarked) [compound 241] | < 65% | ++ (activity was measured to be between 0.7 μM and 3.0 μM) | > 70% | + (activity was measured to be greater than or equal to 4.0 μM) |
| O=C1CC2(CCN(C3CCCCCC3)CC2)c2ccccc2N1 [compound 242] | 65 to 85% | +++ (activity was measured to be less than or equal to 0.7 μM) | > 70% | ++ (activity was measured to be between 0.1 μM and 4.0 μM) |
| O=C(O[C@@H]1CCOC1)N1CC2(CCN(C3CC4CCC(C3)N4C(=O)O[C@@H]3CCOC3)CC2)c2cc(F)ccc21 (some centres unmarked) [compound 243] | 65 to 85% | +++ (activity was measured to be less than or equal to 0.7 μM) | 55 to 70% | + (activity was measured to be greater than or equal to 4.0 μM) |
| c1ccc2c(c1)NCC21CCN(C2CCC3CCC2C3)CC1 (centres unmarked) [compound 244] | 65 to 85% | ++ (activity was measured to be between 0.7 μM and 3.0 μM) | 55 to 70% | + (activity was measured to be greater than or equal to 4.0 μM) |
| CCOC(=O)N1CCC(N2CCC3(CC2)CN(C(C)=O)c2ccc(C4CC4)cc23)CC1 [compound 245] | < 65% | ++ (activity was measured to be between 0.7 μM and 3.0 μM) | > 70% | ++ (activity was measured to be between 0.1 μM and 4.0 μM) |
| CC(C)C(=O)N(C)[C@H]1CC2(CCN(C[C@H]3C[C@H]4CC[C@H]3C4)CC2)c2ccccc21 [compound 246] | < 65% | ++ (activity was measured to be between 0.7 μM and 3.0 μM) | > 70% | ++ (activity was measured to be between 0.1 μM and 4.0 μM) |
| CC(C)(C)COC(=O)N1C2CCC1CC(N1CCC3(CC1)COc1ccc(F)cc13)C2 (centres unmarked) [compound 247] | 65 to 85% | ++ (activity was measured to be between 0.7 μM and 3.0 μM) | > 70% | + (activity was measured to be greater than or equal to 4.0 μM) |
| CCOC(=O)N1CCC(N2CCC3(CC2)CN(CC(C)=O)c2ccc(F)cc23)CC1 [compound 249] | 65 to 85% | + (activity was measured to be greater than or equal to 3.0 μM) | 55 to 70% | + (activity was measured to be greater than or equal to 4.0 μM) |
| CCOC(=O)N1CCC(CN2CCC3(CC2)C[C@H](NC(C)=O)c2ccccc23)CC1 [compound 250] | 65 to 85% | ++ (activity was measured to be between 0.7 μM and 3.0 μM) | 55 to 70% | + (activity was measured to be greater than or equal to 4.0 μM) |
| CC(=O)N1CC2(CCN(C3CC[C@@H]4CC[C@@H]3C4)CC2)c2cc(F)ccc21 (some centres unmarked) [compound 251] | 65 to 85% | ++ (activity was measured to be between 0.7 μM and 3.0 μM) | 55 to 70% | + (activity was measured to be greater than or equal to 4.0 μM) |
| CCCOC(=O)N1CCC(N2CCC3(CC2)CN(C(C)=O)c2ccc(C)cc23)CC1 [compound 252] | < 65% | + (activity was measured to be greater than or equal to 3.0 μM) | 55 to 70% | + (activity was measured to be greater than or equal to 4.0 μM) |
| CCOC(=O)N1CCC(N2CCC3(CC2)CN(C(C)=O)c2ccc(-c4ccc(C#N)cc4)cc23)CC1 [compound 253] | 65 to 85% | ++ (activity was measured to be between 0.7 μM and 3.0 μM) | 55 to 70% | + (activity was measured to be greater than or equal to 4.0 μM) |
| CCOC(=O)N1CCC(N2CCC3(CC2)CN(C(=O)C2CCC2)c2ccc(F)cc23)CC1 [compound 254] | 65 to 85% | + (activity was measured to be greater than or equal to 3.0 μM) | 55 to 70% | + (activity was measured to be greater than or equal to 4.0 μM) |
| CCNC(=O)N1CC2(CCN(C3CC4CCC(C3)N4C(=O)OCC)CC2)c2cc(F)ccc21 (centres unmarked) [compound 255] | < 65% | + (activity was measured to be greater than or equal to 3.0 μM) | < 55% | + (activity was measured to be greater than or equal to 4.0 μM) |
| CCOC(=O)N1CCC(CN2CCC3(CC2)CN(C(C)=O)c2ccc(Cl)cc23)CC1 [compound 256] | < 65% | ++ (activity was measured to be between 0.7 μM and 3.0 μM) | < 55% | ++ (activity was measured to be between 0.1 μM and 4.0 μM) |
| Clc1ccc2c(c1)C1(CCN(C3CCOCC3)CC1)CO2 [compound 257] | > 85% | + (activity was measured to be greater than or equal to 3.0 μM) | < 55% | + (activity was measured to be greater than or equal to 4.0 μM) |
| O=C(OC1CCCC1)N1C2CCC1CC(N1CCC3(CCc4ccccc43)CC1)C2 (centres unmarked) [compound 258] | 65 to 85% | + (activity was measured to be greater than or equal to 3.0 μM) | < 55% | + (activity was measured to be greater than or equal to 4.0 μM) |
| O=C1Nc2ccccc2C12CCN(C1CC3CCC1C3)CC2 (centres unmarked) [compound 259] | 65 to 85% | + (activity was measured to be greater than or equal to 3.0 μM) | < 55% | + (activity was measured to be greater than or equal to 4.0 μM) |
| CCOC(=O)N1CCC(N2CCC3(CC2)CN(C(=O)c2ccncc2)c2ccc(F)cc23)CC1 [compound 260] | 65 to 85% | +++ (activity was measured to be less than or equal to 0.7 μM) | < 55% | + (activity was measured to be greater than or equal to 4.0 μM) |
| CC(=O)N[C@H]1CC2(CCN(C3CCCCCCC3)CC2)c2ccccc21 [compound 261] | < 65% | ++ (activity was measured to be between 0.7 μM and 3.0 μM) | < 55% | + (activity was measured to be greater than or equal to 4.0 μM) |
| CCOC(=O)N1CCC(N2CCC3(CC2)CN(C(=O)c2ccccc2OC)c2ccc(F)cc23)CC1 [compound 262] | < 65% | + (activity was measured to be greater than or equal to 3.0 μM) | < 55% | + (activity was measured to be greater than or equal to 4.0 μM) |
